Measurements published in PubChem BioAssay AID1919001 (Molecular Pharmacology Branch, DTP, NCI, 2023).
Each block holds one compound with its values, some of them ahead of it.

Tested on: 699152-130-R-J1-PDC complex spheroid growth
Experiment: Anticancer human tumor 699152-130-R-J1-PDC patient-derived pancreatic carcinoma cell line growth inhibition [AhR]
Settings: for IC50: curve of first compound; for viability, T/C: stronger effect = lower value
Text: Multicellular complex tumor spheroid response to aryl hydrocarbon receptor antagonists in combination with a variety of drugs and investigational agents in selected tumor cell lines
The current study was undertaken to assess response to aryl hydrocarbon receptor antagonists in combination with standard-of-care drugs and investigational agents in solid tumor complex spheroid models. Complex spheroids include a stromal component modeled by human endothelial cells (HUVEC) and fibroblasts modeled by human mesenchymal stem cells (MSCs). The concentration ranges selected for each drug and investigational agent were based upon clinically achievable concentrations if the clinical Cmax of the agent was known.
Compounds. The drugs and investigational agents: BAY 2416964 (NSC825713), GNF351 (NSC835774), CH-223191 (NSC835775), CPI-455 (NSC825282), aza-TdCyd (NSC777586), decitabine (NSC127716), belinostat (NSC758774), entinostat (NSC756642), pevonedistat (NSC761192), tazemetostat (NSC777109), talazoparib (NSC765396), olaparib (NSC753686), selinexor (NSC780203), nedisertib (M3814, NSC802822), bortezomib (NSC756655), venetoclax (NSC766270), doxorubicin (NSC123127), elimusertib (BAY189344, NSC800525), ceralasertib (AZD6738, NSC777638), TAK-243 (NSC785004), alisertib (NSC759677), etoposide (NSC141540), topotecan (NSC609699), eribulin (NSC707389), gemcitabine (NSC613327), carboplatin (NSC241240), cisplatin (NSC119875), and SN-38 (NSC673596) were obtained from the National Cancer Institute (NCI) Developmental Therapeutics Program Chemical Repository (32). The FDA-approved anticancer drug set is available from the Developmental Therapeutics Program at https://dtp.cancer.gov/organization/dscb/obtaining/available plates.htm. […] The stock solutions were prepared in dimethyl sulfoxide (DMSO, Sigma-Aldrich, St. Louis, MO, cat. D2650), except for the platinum compounds which were prepared in saline (Quality Biological, Gaithersburg, MD, cat. 114-055-101), at 800-fold the tested concentration and stored at -70 degrees C prior to their use. All drugs and investigational agents were tested over a range starting from a high concentration at or near the clinical Cmax and decreasing in half-log increments. If the clinical Cmax for an agent had not been determined, the highest concentration tested was 10 microM (Table 1).
Cell Culture. All cells were maintained in an incubator at 37 degrees C and 5% CO2 with 95% humidity. The PDC lines were cultured according to standard operating procedures established by the NCI PDMR (https://pdmr.cancer.gov). Briefly, all PDCs were thawed and cultured in Matrigel-coated flasks prepared with a working solution of 1X Ham's F-12 nutrient mix, without supplementation (Invitrogen, Waltham, MA, cat. 11765054), 100 U/mL penicillin-streptomycin (Invitrogen, cat. 15140122), and 2.5% Matrigel (Corning Inc., Corning, NY, cat. 354248) for the first three passages. All PDCs were cultured in complete DMEM/F-12 media containing advanced DMEM/F-12 (Invitrogen, cat. 12634028), 4.9% defined fetal bovine serum, heat inactivated (HyClone Laboratories Inc., Logan, UT, cat. SH30070.03HI), 389 ng/mL hydrocortisone (Sigma-Aldrich, cat. H4001), 9.7 ng/mL human EGF recombinant protein (Invitrogen, cat. PHG0313), 23.4 microg/mL adenine (Sigma-Aldrich, cat. A2786), 97.3 U/mL penicillin-streptomycin (Invitrogen, cat. 15140122), 1.9 mM L-glutamine (Invitrogen, cat. 25030081), and 9.7 microM Y-27632 dihydrochloride (Tocris Bioscience, Bristol, United Kingdom, cat. 1254). The PDCs were cultured in complete DMEM/F12 media without 10 microM Y-27632 dihydrochloride for at least two passages prior to the screen. The established cell lines NCI-H1341 and […] were cultured in DMEM/F-12, HEPES (Invitrogen, cat. 11330032), 5% defined fetal bovine serum (HyClone Laboratories Inc., cat. SH30070.03), ITS premix universal culture supplement [insulin (5 microg/mL), transferrin (5 microg/mL), and selenious acid (5 ng/mL)] […]

[1] = second compound 0.1 µM, first compound 0.00949 µM
[2] = second compound 0.1 µM, first compound 0.03 µM
[3] = second compound 0.1 µM, first compound 0.0949 µM
[4] = second compound 0.1 µM, first compound 0.3 µM
[5] = second compound 0.316 µM, first compound 0.00949 µM
[6] = second compound 0.316 µM, first compound 0.03 µM
[7] = second compound 0.316 µM, first compound 0.0949 µM
[8] = second compound 0.316 µM, first compound 0.3 µM
[9] = second compound 1 µM, first compound 0.00949 µM
[10] = second compound 1 µM, first compound 0.03 µM
[11] = second compound 1 µM, first compound 0.0949 µM
[12] = second compound 1 µM, first compound 0.3 µM
[13] = second compound 3.16 µM, first compound 0.00949 µM
[14] = second compound 3.16 µM, first compound 0.03 µM
[15] = second compound 3.16 µM, first compound 0.0949 µM
[16] = second compound 3.16 µM, first compound 0.3 µM
[17] = second compound 10 µM, first compound 0.00949 µM
[18] = second compound 10 µM, first compound 0.03 µM
[19] = second compound 10 µM, first compound 0.0949 µM
[20] = second compound 10 µM, first compound 0.3 µM
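Note: compound exposure lasted 7 days after spheroids had grown for 3 days.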

IC50 (second compound 0.1 µM): > 3000 nM | IC50 (second compound 0.316 µM): > 3000 nM | IC50 (second compound 1 µM): > 3000 nM | IC50 (second compound 3.16 µM): > 3000 nM | IC50 (second compound 10 µM): > 3000 nM
SMILES: CCN(c1cc(-c2ccc(CN3CCOCC3)cc2)cc(C(=O)NCc2c(C)cc(C)[nH]c2=O)c1C)C1CCOCC1 + CC(CO)NC(=O)c1cc(-c2ccc(Cl)cc2)nn(-c2cnn(C)c2)c1=O
viability, T/C [1]: 97.8% | viability, T/C [2]: 105% | viability, T/C [3]: 99.2% | viability, T/C [4]: 96.2% | viability, T/C (second compound 0.1 µM, first compound 0.949 µM): 100% | viability, T/C (second compound 0.1 µM, first compound 3 µM): 102% | viability, T/C [5]: 107% | viability, T/C [6]: 99.4% | viability, T/C [7]: 96.6% | viability, T/C [8]: 94.5% | viability, T/C (second compound 0.316 µM, first compound 0.949 µM): 94.6% | viability, T/C (second compound 0.316 µM, first compound 3 µM): 99.4% | viability, T/C [9]: 105% | viability, T/C [10]: 106% | viability, T/C [11]: 108% | viability, T/C [12]: 97.3% | viability, T/C (second compound 1 µM, first compound 0.949 µM): 99.4% | viability, T/C (second compound 1 µM, first compound 3 µM): 111% | viability, T/C [13]: 97.1% | viability, T/C [14]: 89.1% | viability, T/C [15]: 104% | viability, T/C [16]: 91.2% | viability, T/C (second compound 3.16 µM, first compound 0.949 µM): 83.6% | viability, T/C (second compound 3.16 µM, first compound 3 µM): 95.1% | viability, T/C [17]: 93.9% | viability, T/C [18]: 92.2% | viability, T/C [19]: 95.1% | viability, T/C [20]: 85% | viability, T/C (second compound 10 µM, first compound 0.949 µM): 86.5% | viability, T/C (second compound 10 µM, first compound 3 µM): 87.5%

IC50 (second compound 0.1 µM): > 100 nM | IC50 (second compound 0.316 µM): > 100 nM | IC50 (second compound 1 µM): > 100 nM | IC50 (second compound 3.16 µM): > 100 nM | IC50 (second compound 10 µM): > 100 nM
SMILES: Cn1ncnc1C1c2n[nH]c(=O)c3cc(F)cc(c23)NC1c1ccc(F)cc1 (stereo not given) + CC(CO)NC(=O)c1cc(-c2ccc(Cl)cc2)nn(-c2cnn(C)c2)c1=O
viability, T/C (second compound 0.1 µM, first compound 0.000316 µM): 102% | viability, T/C (second compound 0.1 µM, first compound 0.001 µM): 113% | viability, T/C (second compound 0.1 µM, first compound 0.00316 µM): 104% | viability, T/C (second compound 0.1 µM, first compound 0.01 µM): 108% | viability, T/C (second compound 0.1 µM, first compound 0.0316 µM): 102% | viability, T/C (second compound 0.1 µM, first compound 0.1 µM): 98.9% | viability, T/C (second compound 0.316 µM, first compound 0.000316 µM): 105% | viability, T/C (second compound 0.316 µM, first compound 0.001 µM): 102% | viability, T/C (second compound 0.316 µM, first compound 0.00316 µM): 120% | viability, T/C (second compound 0.316 µM, first compound 0.01 µM): 103% | viability, T/C (second compound 0.316 µM, first compound 0.0316 µM): 86.2% | viability, T/C (second compound 0.316 µM, first compound 0.1 µM): 103% | viability, T/C (second compound 1 µM, first compound 0.000316 µM): 101% | viability, T/C (second compound 1 µM, first compound 0.001 µM): 99.3% | viability, T/C (second compound 1 µM, first compound 0.00316 µM): 102% | viability, T/C (second compound 1 µM, first compound 0.01 µM): 101% | viability, T/C (second compound 1 µM, first compound 0.0316 µM): 101% | viability, T/C (second compound 1 µM, first compound 0.1 µM): 102% | viability, T/C (second compound 3.16 µM, first compound 0.000316 µM): 91.5% | viability, T/C (second compound 3.16 µM, first compound 0.001 µM): 95.3% | viability, T/C (second compound 3.16 µM, first compound 0.00316 µM): 97.6% | viability, T/C (second compound 3.16 µM, first compound 0.01 µM): 96.9% | viability, T/C (second compound 3.16 µM, first compound 0.0316 µM): 92.9% | viability, T/C (second compound 3.16 µM, first compound 0.1 µM): 84.2% | viability, T/C (second compound 10 µM, first compound 0.000316 µM): 95.4% | viability, T/C (second compound 10 µM, first compound 0.001 µM): 81.3% | viability, T/C (second compound 10 µM, first compound 0.00316 µM): 91% | viability, T/C (second compound 10 µM, first compound 0.01 µM): 85.5% | viability, T/C (second compound 10 µM, first compound 0.0316 µM): 80.1% | viability, T/C (second compound 10 µM, first compound 0.1 µM): 79.5%

IC50 (second compound 0.1 µM): 18.2 nM | IC50 (second compound 0.316 µM): 26.4 nM | IC50 (second compound 1 µM): 42.1 nM | IC50 (second compound 3.16 µM): 22.1 nM | IC50 (second compound 10 µM): 47.3 nM
SMILES: CCc1c2c(nc3ccc(O)cc13)-c1cc3c(c(=O)n1C2)COC(=O)[C@]3(O)CC + CC(CO)NC(=O)c1cc(-c2ccc(Cl)cc2)nn(-c2cnn(C)c2)c1=O
viability, T/C (second compound 0.1 µM, first compound 0.000949 µM): 89% | viability, T/C (second compound 0.1 µM, first compound 0.003 µM): 83.5% | viability, T/C [1]: 56.5% | viability, T/C [2]: 46.2% | viability, T/C [3]: 48% | viability, T/C [4]: 35.7% | viability, T/C (second compound 0.316 µM, first compound 0.000949 µM): 83.3% | viability, T/C (second compound 0.316 µM, first compound 0.003 µM): 75.5% | viability, T/C [5]: 58.9% | viability, T/C [6]: 49.4% | viability, T/C [7]: 44.8% | viability, T/C [8]: 41.3% | viability, T/C (second compound 1 µM, first compound 0.000949 µM): 85.7% | viability, T/C (second compound 1 µM, first compound 0.003 µM): 75.4% | viability, T/C [9]: 61.3% | viability, T/C [10]: 51.4% | viability, T/C [11]: 47.2% | viability, T/C [12]: 41.5% | viability, T/C (second compound 3.16 µM, first compound 0.000949 µM): 72.3% | viability, T/C (second compound 3.16 µM, first compound 0.003 µM): 64.4% | viability, T/C [13]: 57.2% | viability, T/C [14]: 45.3% | viability, T/C [15]: 42% | viability, T/C [16]: 31.4% | viability, T/C (second compound 10 µM, first compound 0.000949 µM): 71.9% | viability, T/C (second compound 10 µM, first compound 0.003 µM): 69.4% | viability, T/C [17]: 61.7% | viability, T/C [18]: 52.6% | viability, T/C [19]: 45.9% | viability, T/C [20]: 28.4%
